The values below come from patent US20060069132A1, “Azolecarboxamide herbicides” (priority 2004, published 2006).

One experiment concerns barnyardgrass (ECHCG). Kind of experiment: Test J Compounds 2 and 6 alone and in combination with other herbicides, foliage spray. In kind it is in vivo, Echinochloa crus-galli. More on the design: key: percentage herbicidal effect (observed). To be noted: applied alone. The text has this:
(§1) Colby's Equation was used to calculate the expected additive herbicidal effect of the mixtures of Compound 6 with Harmony® Extra (i.e. a 2:1 mixture by weight of thifensulfuron-methyl and tribenuron-methyl). Colby's Equation (Colby, S. R. “Calculating Synergistic and Antagonistic Responses of Herbicide Combinations,” Weeds, 15(1), pp 20-22 (1967)) calculates the expected additive effect of herbicidal mixtures, and for two active ingredients is of the form: Pa+b=Pa+Pb−(PaPb/100) wherein • Pa+b is the percentage effect of the mixture expected from additive contribution of the individual components, • Pa is the observed percentage effect of the first active ingredient at the same use rate as in the mixture, and • Pb is the observed percentage effect of the second active ingredient at the same use rate as in the mixture.
(§2) Seeds of test plants consisting of barnyardgrass (ECHCG; Echinochloa crus-galli (L.) Beauv.), blackgrass (ALOMY; Alopecurus myosuroides Huds.), Surinam grass (BRADC; Urochloa decumbens (Staph) R. D. Webster, previously named Brachiaria decumbens Stapf), cocklebur (XANST, Xanthium strumarium L.), corn (ZEAMD, Zea mays L. cv. ‘Pioneer 33G26’), large crabgrass (DIGSA, Digitaria sanguinalis (L.) Scop.), giant foxtail (SETFA, Setaria faberi Herrm.), lambsquarters (CHEAL, Chenopodium album L.), morningglory (IPOCO, Ipomoea coccinea L.), pigweed (AMARE, Amaranthus retroflexus L.), velvetleaf (ABUTH, Abutilon theophrasti Medik.) wheat (TRZAS, Triticum aestivum L. cv. ‘Recital’) and wild oat (AVEFA, Avena fatua L.) were planted in Redi-Earth® planting medium (Scotts Company, 14111 Scottslawn Road, Marysville, Ohio 43041) comprising spaghnum peat moss and vermiculite. Seeds of small-seeded species were planted about 1 cm deep; larger seeds were planted about 2.5 cm deep. Plants were grown in a greenhouse using supplemental lighting to maintain a photoperiod of about 14 hours; daytime and nighttime temperatures were about 24-30° C. and 22-25° C., respectively. Balanced fertilizer was applied through the watering system. The plants were grown for 7 to 11 days so that at time of treatment the plants ranged in height from 2 to 18 cm (1- to 4-leaf stage). Treatments consisted of Compounds 2 and 6 (technical material), atrazine (90DF), terbacil (Sinbar® 80DF), hexazinone (Velpar® 75WG), diuron (Karmex® 80WP) and paraquat (Gramoxone® Extra, 37%) alone and in combination, suspended or dissolved in an aqueous solvent comprising a nonionic surfactant and applied as a foliage spray using a volume of 541 L/ha. Each treatment was triply replicated. […] Treated plants and controls were maintained in the greenhouse and watered as needed with care to not wet the foliage for the first 24 hours after treatment. The effects on the plants 15 days after treatment were visually compared to untreated controls. Plant response ratings, listed in Table J as the means of the thee replicates, are based on a scale of 0 to 100 where 0 is no effect and 100 is complete control. Also listed in Table J are the expected effects for the mixtures calculated using Colby's Equation.

The test system of a further experiment is giant foxtail (SETFA). The experiment is described as above. It counts as in vivo, Setaria faberi. More on the design: key: 0 = no effect, 100 = complete control. The note with it: applied alone. The gist of the method:
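Visual control rating (0 = no effect, 100 = complete control), mean of three replicates, scored 15 days after a 541 L/ha foliar spray of 1- to 4-leaf plants. Mixture expectations derived with Colby's Equation from the single-component effects at matching rates.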

The subject of another experiment is Surinam grass (BRADC). The description is as above. More on the design: key: 0 = no effect, 100 = complete control. It counts as in vivo, Urochloa decumbens. To be noted: applied alone.
Excerpt: as §1, §2

Another experiment relates to Russian thistle. Kind of experiment: Test F pre-/postemergence herbicide test. In kind it is in vivo, Salsola kali. To be noted: 125 g ai/ha. An excerpt:
Seeds of plant species selected from annual blugrass (Poa annua L.), blackgrass (Alopecurus myosuroides Huds.), catchweed bedstraw (Gallium aparine L.), common chickweed (Stellaria media (L.) Vill./Cyr.), downy bromegrass (Bromus tectorum L.), green foxtail (Setaria viridis (L.) Beauv.), Italian ryegrass (Lolium multiflorum Lam.), kochia (Kochia scoparia (L.). Schrad.), lambsquarters (Chenopodium album L.), littleseed canarygrass (Phalaris minor Retz.), pigweed (Amaranthus retroflexus L.), Russian thistle (Salsola kali L. ssp. Ruthenica (Iljin) Soo), wild buckwheat (Polygonum convolvulus L.), wild mustard (Sinapis arvensis L.), wild oat (Avena fatua L.), windgrass (Apera spica-venti (L.) Beauv.), winter barley (Hordeum vulgare L.), and wheat (Triticum aestivum L.) were planted and treated preemergence with test chemicals formulated in a non-phytotoxic solvent mixture which included a surfactant.
At the same time, plants selected from these crop and weed species were treated with postemergence applications of some of the test chemicals formulated in the same manner. Plants ranged in height from 2 to 18 cm (1- to 4-leaf stage) for postemergence treatments. Treated plants and controls were maintained in a greenhouse for 12 to 14 days, after which time all species were compared to controls and visually evaluated. […]

In the case of `CCNC(=O)c1ccc(F)c(NC(=O)c2cc(C(C)(C)C)nn2CC)c1` [Compound 2, 3-(1,1-dimethylethyl)-1-ethyl-N-[5-[(ethylamino)carbonyl]-2-fluorophenyl]-1H-pyrazole-5-carboxamide], the results for the “ECHCG Obsd.” value with barnyardgrass (ECHCG) (62 g a.i./ha) and in the experiment on barnyardgrass (ECHCG) (125 g a.i./ha) were 13 and 8, respectively. Moreover, the “SETFA Obsd.” value in the experiment with giant foxtail (SETFA) (62 g a.i./ha) turned out to be 28; in the experiment on giant foxtail (SETFA) (125 g a.i./ha), 32. Besides, the “BRADC Obsd.” value in the experiment on Surinam grass (BRADC) (62 g a.i./ha) was found to be 8; in the experiment with Surinam grass (BRADC) (125 g a.i./ha), 17.

As for `CCc1nn(C(C)(C)C)cc1C(=O)Nc1cc(C(=O)N(CC)CC)ccc1F` [Compound 223], the “Plant response rating (0-100), Thistle” value in the experiment with Russian thistle (Postemergence) and in the experiment on Russian thistle (Preemergence) was 60 each time.
